Key:
CD103 DCs = assay: Phagocytosis of cancer cells by dendritic cells excised from tumor tissues; assay type: in vivo; details: compared with CD103 DCs from control mice
Source text: The present inventors excised dendritic cells from tumor tissues and analyzed the phagocytosis of dendritic cells against cancer cells in vitro using the same method as described in Example 1-1.

B16F10-Ova = B16F10-Ova tumor model, Y27632 combined with a chemotherapeutic; assay type: in vivo, mice; details: doxorubicin 5 mg/kg, Y27632 10 mg/kg
Method: Specifically, tumor suppression was examined by administering 5 mg/kg of doxorubicin and 10 mg/kg of Y27632 alone or in combination to B16F10-Ova-bearing tumor model mice prepared as in Example 2-1. Doxorubicin was administered three times at intervals of 3 days from the 8th day after the injection of cancer cells, and Y27632 was administered at a dose of 10 mg/kg continuously for two consecutive days via intravenous injection followed by a day of rest as a cycle, followed by 3 cycles of 3-day intervals (FIG. 18A). The mice were sacrificed on the 20th day after the injection of cancer cells, the tumor tissue was excised, and ex vivo images were taken and the tumor tissues were weighed. Before the sacrifice of the mice, the tumor volumes over time were calculated as described above using calipers at intervals of 3 days from the 8th day after the injection of the cancer cells.
In order to confirm whether CD8^+ T cells infiltrates into tumor tissues, tumor tissues excised from an experimental animal were sectioned and subjected to fluorescence immunohistochemistry using anti-CD8 antibodies.
First, to determine the cisplatin therapeutic concentration, a B16F10-Ova tumor model was constructed in a nude mouse lacking T cell immunity and then an experiment was conducted to confirm the concentration of cisplatin having an anticancer effect similar to that of doxorubicin at 5 mg/kg. […] Thus, in order to evaluate the therapeutic effect of cisplatin and the ROCK inhibitor Y27632 in the B16F10-Ova-bearing tumor model, 3 mg/kg of cisplatin was administered according to the administration schedule shown in FIG. 18A.

IFN-γ = IFN-γ ELISA of draining lymph node cells given β-gal peptide; assay type: in vivo, mice
Method: After draining lymph node was isolated from the tumor model animals, 5 μg/ ? of β-gal peptide (TPHPARIGL, SEQ ID NO: 1, including the naturally processed H-2 Ld limited epitope comprising amino acid residue 876 to 884 of β-galactosidase) which simulates β-gal peptide, a model antigen present in CT26.CL25 cells, or PBS were administered and the expression of IFN-γ was measured by IFN-γ ELISA kit (R&D Systems, Inc., USA).

[1] = system: bone marrow-derived dendritic cells (BMDCs); assay: Phagocytosis of cancer cells by bone marrow-derived dendritic cells in vitro; assay type: cell-based, mice; details: 30 μM, 1 hour
[2] = system: CT26.CL25 cancer cell line; assay: CT26.CL25 tumor model with depletion of immune cells; assay type: in vivo, mice; details: 10 mg/kg intravenous
Method: Specifically, tumor model mice were prepared by subcutaneously injecting 1×10^6 cells of CT26.CL25 cancer cell line expressing β-galactosidase into wild type mice by subcutaneous injection into the left side or the like.
For the depletion of phagocytic cells in the tumor model mice, 200 μl of control liposome (FormuMax Scientific, Inc., USA) or 200 μl of clodronate liposome (FormuMax Scientific, Inc., USA) were injected intraperitoneally 5 days after cancer cell injection, and then 100 μl of the liposomes were intraperitoneally injected at intervals of 4 days until the end of the experiment Similarly, for the depletion of CD8 T cells or CD4 T cells, 200 μg of anti-CD8a antibodies (clone 2.43, bioXcell) or anti-CD4 antibodies (Clone GK 1.5, bioXcell, USA) were intraperitoneally injected (FIGS. 10A and 10B) to the tumor model mice. As a negative control, only the carrier (PBS) or the rat-derived nonspecific antibodies (rIgG, Clone LTF-2, bioXcell, USA) was administered to the tumor model mice.
From the 6th day after the injection of the cancer cells, Y27632 was administered at a dose of 10 mg/kg continuously for two consecutive days via intravenous injection, followed by a day of rest as a cycle, followed by 3 cycles of 3-day intervals. Mice were sacrificed 22 days after the injection of cancer cells, the tumor tissues were excised, and ex vivo images were taken, and the tumor tissues were weighed. Before the sacrifice of the mice, the volume of the tumor over time was calculated as described above (FIGS. 10E and 10F). […] Thus, we confirmed that the therapeutic effect of ROCK inhibitors appears to require CD8 T cells. […] As a control, a rat-derived nonspecific antibody (rIgG, BioXcell, USA) was used.

OT-1 T cells = assay: Co-culture of OT-1 T cells with phagocytes isolated from B16F10-Ova-bearing mice (IFN-γ); assay type: in vivo
Method: In addition, the expression of IFN-γ in OT-1 T cells co-cultured with macrophages and dendritic cells isolated from the tumor-draining lymph nodes and the tumor tissues in the B16F10-Ova cancer model mice was assessed using IFN-γ ELISA kit (R&D Systems, Inc, USA). It was confirmed that the amount of IFN-γ was increased when the dendritic cells isolated from the tumor-draining lymph nodes and the tumor tissues were co-cultured with OT-1 T cells (FIG. 14D). However, there was no change in the amount of IFN-γ when macrophages and OT-1 T cells were co-cultured.
The present inventors investigated whether the combined administration of Y27632 and doxorubicin induces immunity enhancement through CD8 T cells. For this purpose, dendritic cells isolated from tumor-draining lymph nodes of B16F10-Ova-bearing cancer model mice were co-cultured with OT-1 T cells, and then the amount of IFN-γ was measured by IFN-γ ELISA kit (R&D Systems, USA). […] In addition, it was confirmed that the amount of IFN-γ-positive T cells increased when the dendritic cells derived from mice administered with the combined administration were co-cultured with OT-1 T cells (FIG. 18G).

[3] = system: CT26.CL25 colon cancer cells expressing mCherry; assay: Phagocytosis of mCherry-expressing cancer cells in the tumor model; assay type: in vivo, mice; details: conditions of Example 2-3
Method: In order to confirm whether or not the ROCK inhibitor Y27632 induces cancer cell phagocytosis in a tumor model, CT26.CL25 colon cancer cells expressing mCherry were prepared and used to create a tumor model by injecting tumor cells into mice, and it was analyzed whether phagocytosis of macrophages and dendritic cells against cancer cells expressing mCherry was increased under the same conditions as in Example 2-3.

[4] = from tumor-draining lymph nodes

C[C@@H](N)[C@H]1CC[C@H](C(=O)Nc2ccncc2)CC1 [Y27632]
phagocytosis against cancer cells of CD103 DCs isolated from treated mice (CD103 DCs): significantly enhanced | complete regression of the tumor (B16F10-Ova): not observed | infiltration of CD8+ T cells into tumor tissues (B16F10-Ova): slight infiltration | IFN-γ level in draining lymph node (IFN-γ; PBS liposome-treated group): increased | INF-γ expression in CD8-negative cells of draining lymph node (IFN-γ; mouse, in vivo): no difference in INF-γ expression | amount of IFN-γ in CD8-positive cells of draining lymph node (IFN-γ; mouse, in vivo): increased | phagocytosis of BMDCs against non-immunogenic apoptosis-induced cancer cells by cisplatin ([1]; CT26.CL25 or B16F10-Ova): increased similarly to that by doxorubicin treatment | phagocytosis of BMDCs against necrosis-induced cancer cells ([1]; necrosis at 55° C. for 30 minutes): increased similarly to that by doxorubicin treatment | anti-cancer effect when CD8 T cells were depleted by anti-CD8a antibodies [2]: disappeared | anti-cancer effect when phagocytic cells were depleted by clodronate [2]: disappeared | anticancer effect when CD4 T cells were deficient [2]: anticancer effect similar to that in normal mice | amount of IFN-γ, dendritic cells co-cultured with OT-1 T cells (OT-1 T cells; dendritic cells from tumor-draining lymph nodes and tumor tissues): increased | T cell priming (amount of IFN-γ), dendritic cells co-cultured with OT-1 T cells (OT-1 T cells; dendritic cells from tumor-draining lymph nodes, doxorubicin study): increased | proportion of IFN-γ-positive T cells, dendritic cells co-cultured (OT-1 T cells; [4]): increased | proportion of IFN-γ-positive T cells, macrophages co-cultured (OT-1 T cells; [4]): did not affect | amount of IFN-γ, macrophages co-cultured with OT-1 T cells (OT-1 T cells; mouse, in vivo): no change | phagocytosis of tumor dendritic cells against cancer cells expressing mCherry [3]: increased about two-fold | phagocytosis of tumor macrophages against cancer cells expressing mCherry [3]: increased about two-fold

Source: patent US20190328721A1, “METHOD OF ACTIVATING DENDRITIC CELLS” (KOREA INSTITUTE OF SCIENCE AND TECHNOLOGY, priority 2018, published 2019)
